Series [1] can be described thus: Pharmacokinetic parameters after subcutaneous and intravenous administration to mice. Format: in vivo. The following applies: male, mouse, plasma, 20 nmol/kg, C57Bl/6J mice; for half-life: read-out: Terminal half life (converted); for MRT: read-out: Mean Residence Time. The method, then: Pharmacokinetic parameters of the test compounds were determined after subcutaneous and intravenous administration to C57Bl/6J mice.
8 week old male C57Bl/6J mice were obtained from Taconic (Denmark) weighing approximately 20-25 g at time of arrival at the test facility. The mice were caged in European standard cages type III with light cycle of 12-hour dark and 12-hour light (lights on 06.00). Both diet, Altromin 1324 (Altromin, Germany), and water was administered ad libitum during the whole experimental period. The 8-11 week animals were imported to the laboratory at least 7 days before the start up of the experimental procedure in order to assure proper acclimatization. After sampling the mice were euthanized by cervical dislocation.
The compounds were first dissolved in 0.096% aqueous ammonia to a nominal concentration of 2 mg/ml, and then diluted to the desired dosing strength (4 μM) in sterile PBS containing 25 mM phosphate buffer, pH 7.4. Subcutaneous and intravenous injections corresponding to 20 nmol/kg were given. The GLP-1-glucagon dual agonists were administered for subcutaneous dosing in the neck region and via a lateral tail vein for intravenous dosing.
Blood samples (250 μl) were collected from the periorbital plexus at time points 0.5, 2, 4, 6, 12, 16, 20, 24 h for subcutaneous and 10, 30 min, 3, 6, 12, 18, 24 h for intravenous administration into ice-chilled K3EDTA tubes and centrifuged for 5 minutes at 4° C. within 20 minutes of sampling. Plasma (>100 μl) was separated to ice-chilled Micronic tubes, immediately frozen, and kept at −70° C. until analysed for plasma concentration for the respective GLP-1-glucagon compound using LC-MS/MS. Individual plasma concentration-time profiles were analysed by a non-compartmental approach in WinNonLin v6.3 (Pharsight inc, Mountain View, Calif., USA), and the resulting pharmacokinetic parameters determined.

Series [2] deals with T1, human glucagon receptor (Glucagon-R) (Homo sapiens, UniProt P47871).
T1 construct: expressed in transfected cells
T1 sequence (P47871 26-477): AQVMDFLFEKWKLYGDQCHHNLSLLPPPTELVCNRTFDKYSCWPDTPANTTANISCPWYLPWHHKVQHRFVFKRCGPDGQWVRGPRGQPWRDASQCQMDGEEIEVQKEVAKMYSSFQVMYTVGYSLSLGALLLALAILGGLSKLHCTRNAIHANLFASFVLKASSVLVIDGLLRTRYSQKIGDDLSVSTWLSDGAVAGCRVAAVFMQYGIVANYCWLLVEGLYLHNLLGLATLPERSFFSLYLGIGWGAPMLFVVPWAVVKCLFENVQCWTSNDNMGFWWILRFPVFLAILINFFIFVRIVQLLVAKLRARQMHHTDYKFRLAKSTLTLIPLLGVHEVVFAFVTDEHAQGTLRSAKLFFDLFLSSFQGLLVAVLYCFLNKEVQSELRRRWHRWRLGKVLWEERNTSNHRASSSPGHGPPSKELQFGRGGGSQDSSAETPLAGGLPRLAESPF
The series can be described thus: Glucagon receptor efficacy assay (cAMP AlphaScreen, CHO cells). Format: cell-based. As to conditions: Table 1A; CHO cells expressing human Glucagon-R, cAMP; read-out: EC50 hGCGR CHO-K1. An outline of the steps: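 Stably transfected CHO clones expressing human GLP-1R or glucagon receptor were treated with increasing peptide concentrations for 15 min at room temperature in KRBH containing 0.1 mM IBMX. After lysis, cAMP was quantified by AlphaScreen; EC50 and efficacy relative to GLP-1 or glucagon reference came from curve fitting.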

Series [3] addresses T2, endogenous glucagon receptor (Rattus norvegicus, UniProt P30082).
T2 construct: Agonistic activity of the test compounds on endogenous glucagon receptor; endogenous in cells; host or cells: primary rat hepatocytes
The series can be described thus: Agonistic activity on endogenous glucagon receptor (glycogen synthesis rate in primary rat hepatocytes). Format: cell-based. The following applies: inhibition of glycogen synthesis rate, 3 hours, read-out: EC50 GLP-1R Rat hepat. The method, boiled down: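 Primary rat hepatocytes (40,000 cells/well, cultured 24 h) incubated 3 h with compound in KRBH buffer with 0.1% BSA, 22.5 mM glucose and D-[U14C]glucose. 14C incorporated into precipitated glycogen counted, background-subtracted and expressed as % of 0.1% DMSO vehicle (100% CTL). pEC50 from cpm versus log concentration; agonism lowers glycogen synthesis.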

Read-outs that look alike come from different tables or passages of the source. *1 amine or outer side, *2 acyl side, *3 side chain or, on linkers, in order; H or OH if unused. Where a SMILES comes first, the peptide text is derived from it. Side-chain parts run from the residue outwards. The star is where a group is joined. γGlu = O=C(O)[C@H](CCC(=O)[*:2])N[*:1]; Palmitoyl = CCCCCCCCCCCCCCCC(=O)*

T2 sequence (P30082 27-485): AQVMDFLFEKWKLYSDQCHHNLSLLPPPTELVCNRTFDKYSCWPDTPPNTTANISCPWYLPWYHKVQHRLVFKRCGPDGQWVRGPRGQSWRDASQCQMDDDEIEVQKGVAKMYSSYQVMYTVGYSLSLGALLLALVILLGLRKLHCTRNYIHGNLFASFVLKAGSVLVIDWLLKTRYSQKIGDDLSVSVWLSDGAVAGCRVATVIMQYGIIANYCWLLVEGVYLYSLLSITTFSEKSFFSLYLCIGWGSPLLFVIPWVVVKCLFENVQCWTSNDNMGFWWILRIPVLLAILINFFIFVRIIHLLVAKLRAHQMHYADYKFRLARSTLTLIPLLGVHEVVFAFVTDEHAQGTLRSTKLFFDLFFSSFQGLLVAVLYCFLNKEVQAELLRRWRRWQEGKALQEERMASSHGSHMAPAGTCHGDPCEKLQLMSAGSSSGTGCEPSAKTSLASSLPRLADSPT

Take `CCCCCCCCCCCCCCCC(=O)N[C@@H](CCC(=O)NCCCC[C@H](NC(=O)[C@H](CO)NC(=O)[C@H](CC(=O)O)NC(=O)[C@H](CC(C)C)NC(=O)[C@H](Cc1ccc(O)cc1)NC(=O)[C@H](CCCNC(=N)N)NC(=O)[C@H](CO)NC(=O)[C@H](Cc1ccc(O)cc1)NC(=O)[C@H](CC(=O)O)NC(=O)[C@H](CO)NC(=O)[C@@H](NC(=O)[C@H](Cc1ccccc1)NC(=O)[C@@H](NC(=O)CNC(=O)[C@H](CCC(N)=O)NC(=O)[C@H](CO)NC(=O)[C@@H](N)Cc1c[nH]cn1)[C@@H](C)O)[C@@H](C)O)C(=O)N[C@@H](C)C(=O)N[C@@H](C)C(=O)N[C@@H](CCC(=O)O)C(=O)N[C@@H](CC(=O)O)C(=O)N[C@@H](Cc1ccccc1)C(=O)N[C@H](C(=O)N[C@@H](CCC(=O)O)C(=O)N[C@@H](Cc1c[nH]c2ccccc12)C(=O)N[C@@H](CC(C)C)C(=O)N[C@@H](CC(C)C)C(=O)N[C@@H](CCCNC(=N)N)C(=O)N[C@@H](C)C(N)=O)C(C)C)C(=O)O` [Compound 6, H-HSQGTFTSDYSRYLDS-K(Hexadecanoyl-isoGlu)-AAEDFVEWLLRA-NH2] (H-HSQGTFTSDYSRYLDSK([γGlu-Palmitoyl])AAEDFVEWLLRA-NH2): in series [1] (IV), the clearance is 0.157 mL/min/kg and the half-life (commonly the time in which the quantity being followed falls by half) is 3.7 h. In series [1] (SC), the Tmax (in general, the time at which the peak concentration occurs) amounted to 4 h; the bioavailability (in general, dose-corrected exposure relative to a reference, in per cent) came to 47%; the MRT is 10.6 h; the half-life is 4.3 h. Besides, the EC50 (commonly the concentration that produces a half-maximal response) in series [2] was 0.46 nM. The EC50 in series [3] was 2.87 nM.
With `CCCCCCCCCCCCCCCC(=O)N[C@@H](CCC(=O)NCCCC[C@H](NC(=O)[C@H](CO)NC(=O)[C@H](CC(=O)O)NC(=O)[C@H](CC(C)C)NC(=O)[C@H](Cc1ccc(O)cc1)NC(=O)[C@H](CCCCN)NC(=O)[C@H](CO)NC(=O)[C@H](Cc1ccc(O)cc1)NC(=O)[C@H](CC(=O)O)NC(=O)[C@H](CO)NC(=O)[C@@H](NC(=O)[C@H](Cc1ccccc1)NC(=O)[C@@H](NC(=O)CNC(=O)[C@H](CCC(N)=O)NC(=O)[C@H](CO)NC(=O)[C@@H](N)Cc1c[nH]cn1)[C@@H](C)O)[C@@H](C)O)C(=O)N[C@@H](C)C(=O)N[C@@H](C)C(=O)N[C@@H](CCC(=O)O)C(=O)N[C@@H](CC(=O)O)C(=O)N[C@@H](Cc1ccccc1)C(=O)N[C@H](C(=O)N[C@@H](CCC(=O)O)C(=O)N[C@@H](Cc1c[nH]c2ccccc12)C(=O)N[C@@H](CC(C)C)C(=O)N[C@@H](CC(C)C)C(=O)N[C@@H](CCCNC(=N)N)C(=O)N[C@@H](C)C(N)=O)C(C)C)C(=O)O` [Compound 7, H-HSQGTFTSDYSKYLDS-K(Hexadecanoyl-isoGlu)-AAEDFVEWLLRA-NH2] (H-HSQGTFTSDYSKYLDSK([γGlu-Palmitoyl])AAEDFVEWLLRA-NH2), in series [1] (IV), the clearance was 0.22 mL/min/kg and the half-life is 5.5 h. Moreover, in series [1] (SC), the Tmax turned out to be 4 h, the bioavailability worked out at 75%, the MRT was found to be 12.8 h and the half-life is 8.6 h. Moreover, the EC50 in series [2] came out at 0.45 nM. For the same molecule, in series [3], the concentration giving a half-maximal response (EC50) was 1.92 nM.

The record behind these values is patent publication US10253081B2, “Glucagon analogues” (Zealand Pharma A/S, priority 2012, dated 2019).
